Results taken from PMC9879403, “Oncolytic strategy using new bifunctional HDACs/BRD4 inhibitors against virus-associated lymphomas” (PLOS Pathogens, 2023).
Read-outs that look alike come from different tables or passages of the source.

Legend:
[1] = tested on: KSHV; type: cell-based
[2] = tested on: BCBL-1; assay: WST-1 cytotoxicity assay, BCBL-1 (KSHV+ PEL); type: cell-based; conditions: BCBL1, 72 h
Description: (§1) Fig 2 Identification of newly synthesized dual inhibitors with anti-PEL activities. (A) The binding mode of (+)-JQ1 with BRD4^BD1 (PDB: 3MXF). BRD4^BD1 is shown as hot pink cartoon with gray surface. Asn140 in BRD4^BD1 is shown as sticks and colored in following pattern: atom C hot pink, atom N dark blue, and atom O yellow. (+)-JQ1 is shown as sticks and colored in following patten: atom C hot pink, atom N dark blue, atom O yellow, atom S golden, and atom Cl green. The solvent exposed region (SEG) of (+)-JQ1 are indicated with white arrow. (B) The binding modes of SAHA and entinostat with HDAC2 (PDB: 3MAX). HDAC2 is shown as blue cartoon with gray surface. Asp181 and His183 in HDAC2 are shown as sticks and colored in following pattern: atom C blue, atom N dark blue, and atom O yellow. The catalytic zinc ion in the active site of HDAC2 is shown as black sphere. SAHA is shown as sticks and colored in following pattern: atom C green, atom N dark blue, and atom O yellow. Entinostat is shown as sticks and colored in following pattern: atom C hot pink, atom N dark blue, and atom O yellow. The SEG of SAHA or entinostat is indicated with white arrow. Hydrogen bonds (H-bonds) are presented by red dash lines. (C) The HDACs/BRD4 dual inhibitors 002-011 were designed by fusing the key pharmacophores of (+)-JQ1 (pink) and HDAC inhibitors (blue), SAHA or entinostat, via various chemical linkers (green). (D) Anti-PEL activities of the new compounds. Five KSHV positive and two KSHV negative lymphoma cell lines were treated with indicated concentrations of these compounds for 72 h. Then the cytotoxicity was determined using the WST-1 assay. (+)-JQ1, SAHA and entinostat were used for the comparisons as single inhibitors. The CC50 for each compound was calculated using GraphPad Prism 5.0 software. Error bars represent S.D. for 3 independent experiments.
Fig 4 Identification of anti-PEL activities for compound 009 stereoisomers. (A) The chemical structures of anti-HDACs/BRD4 bifunctional molecules 009P1 and 009P2, as well as anti-HDACs or anti-BRD4 mono-functional molecules 009N1, 009N2, 009N3, and 009N4. (B-C) Four KSHV+ PEL cell lines were treated with indicated concentrations of 009P1, 009P2 or 009N1-N4 for 72 h, then the cytotoxicity was determined using the WST-1 assay. (D-I) BCBL-1 cells were treated with these compounds at the respective 2× CC50 for 24 h, then cell cycle (D-F) and apoptosis (G-I) were measured by flow cytometry analysis. Error bars represent S.D. for 3 independent experiments, ** = p<0.01 (vs vehicle control).
(§2) The cell viability following treatment with compounds was assessed by the WST-1 assay (Roche, Indianapolis, Indiana, USA) according to the manufacturer’s protocol as described previously. The absorbance signal was measured using a microplate reader (Biotek Synergy 2). The 50% cytotoxic concentration (CC50) for each compound was calculated from these dose-response curves using the software GraphPad Prism v5.0. Data were normalized as the fold change compared to the DMSO control.

[3] = tested on: BCBL-1 cells; assay: PEL xenograft model (BCBL-1 cells i.p.)
Experimental: (A) Plasma concentrations of (+)-JQ1, SAHA, or 009P1 after a single administration of 50 mg per kg body (i.p. injection) were presented as mean ± SD (n = 3 mice per time point). (B-E) NOD/SCID mice were injected i.p. with BCBL-1 cells. 72 h later, the compounds or vehicle were administered i.p. as described in the Methods, and weights were recorded weekly. At the end of the treatment period, the splenic tissues were collected from the vehicle or compound treated mice, compared and processed with the H&E and IHC staining. (F) Plasma concentrations of 009P1 after a single administration of 50 mg per kg body (oral gavage) were presented as mean ± SD (n = 3 mice per time point). (G-I) NOD/SCID mice were injected i.p. with BCBL-1 cells. 72 h later, the compounds or vehicle were administered orally as described in the Methods, and weights were recorded weekly.
In all NOD/SCID mice, 6–8-week-old, male (Jackson Laboratory, Ellsworth, Maine, USA), 1 × 10^7 BCBL-1 cells in 200 μL RMPI-1640 without FBS were injected intraperitoneally and then mice were randomized into treatment groups of 6 mice as described previously. The tested compounds or vehicle was administered initially at 72 h after BCBL-1 injections, and continued once daily, 2 days per week for 3 weeks. Weights were recorded weekly as a surrogate measure of tumor progression. At the end of experiment, the spleens of mice were excised for immunoblots and immunohistochemical analyses.
Formalin-fixed, paraffin-embedded tissues were microtome-sectioned to a thickness of 4 μm and placed on electromagnetically charged slides. Immunohistochemistry was performed as described previously, and the c-Myc and H3K9Ac antibodies were purchased from Abcam. Images were collected using an Olympus BX61 microscope equipped with a high resolution DP72 camera and CellSense image capture software.

[4] = tested on: HDACs; assay: HDACs signaling by Western blot (H3K9Ac, H4K9Ac, Acetyl-tubulin); type: cell-based
[5] = tested on: KSHV; assay: Viral DNA levels in PEL cells by qPCR; type: cell-based
[6] = tested on: BJAB.219; assay: WST-1 cytotoxicity assay, BJAB.219 (KSHV-infected lymphoma); type: cell-based; conditions: 72 h, read-out: KSHV-infected lymphomas CC50, BJAB.219
Description: as §1
BCBL-1 and iSLK.219 cells were kindly provided by Dr. Pinghui Feng (University of Southern California). BL-41, BJAB, BCP-1, BC-1, BC-3, JSC-1, HUVEC cells were purchased from American Type Culture Collection (ATCC), and cultured as recommended by the manufacturer. For making BJAB.219 cells, BJAB cells were infected with rKSHV.219 stock by spinoculation as previously reported by centrifugation at 1500×g for 60 min [31]. Then, puromycin (10 μg/ml) was added into the medium at 72 h post-infection and the medium containing puromycin was replaced twice a week. After 6-week high concentration of puromycin selection, BJAB.219 cells were then cultured in the medium with 0.5 μg/ml puromycin.
The cell viability following treatment with compounds was assessed by the WST-1 assay (Roche, Indianapolis, Indiana, USA) according to the manufacturer’s protocol as described previously. The absorbance signal was measured using a microplate reader (Biotek Synergy 2). […]

[7] = Toxicity study, oral administration at 100 mg/kg
[8] = WST-1 cytotoxicity assay, BL-41 (KSHV negative lymphoma); type: cell-based; conditions: human; 50% cytotoxic concentration, 72 h, WST-1; read-out: KSHV negative lymphomas CC50, BL-41
Description: as §1, §2

[9] = WST-1 cytotoxicity assay, BJAB (KSHV negative lymphoma); type: cell-based; conditions: human; 50% cytotoxic concentration, 72 h, WST-1; read-out: KSHV negative lymphomas CC50, BJAB
Description: as §1, §2

[10] = read-out: KSHV-infected lymphomas CC50, BCBL-1

| Compound | Expression of viral genes (LANA, RTA, ORF26) [1] | CC50 ([2]; read-out: CC50, BCBL-1) [nM] | PEL tumor progression (ascites formation, spleen enlargement) ([3]; i.p., 20 mg/kg) | Tumor infiltration into the spleen (H&E) ([3]; i.p., 20 mg/kg) | Visible toxicity in mice (abnormal weight loss) ([3]; i.p., 20 mg/kg) | Tumor burden in mice (ascites formation, spleen enlargement) ([3]; oral administration, 20 mg/kg) | H3K9Ac, H4K9Ac and Acetyl-tubulin protein levels ([4]; BCBL-1 cells, 48 h, Western blot) | Viral DNA levels [5] | CC50 [6] [nM] | Toxicity in the mice [7] | CC50 [2, 10] [nM] | Tumor infiltration into the spleen (H&E) ([3]; i.p., 50 mg/kg) | Visible toxicity in mice (abnormal weight loss) ([3]; i.p., 50 mg/kg) | CC50 at 72 h [8] [nM] | CC50 at 72 h [9] [nM] | CC50 ([6]; 50% cytotoxic concentration, WST-1) [nM] | H3K9Ac, H4K9Ac and Acetyl-tubulin protein levels [4] |
| --- | --- | --- | --- | --- | --- | --- | --- | --- | --- | --- | --- | --- | --- | --- | --- | --- | --- |
| Cc1sc2c(c1C)C(c1ccc(Cl)cc1)=N[C@@H](CC(=O)O[C@H](C)c1ccc(C(=O)Nc3ccccc3N)cc1)c1nnc(C)n1-2 [009P1, (R)-1-(4-((2-aminophenyl)carbamoyl)phenyl)ethyl 2-((S)-4-(4-chlorophenyl)-2,3,9-trimethyl-6H-thieno[3,2-f][1,2,4]triazolo[4,3-a][1,4]diazepin-6-yl)acetate] | significantly increased | 16 | dramatically suppressed PEL tumor progression | only diffuse small tumor nodules | not observed | effectively repressed tumor burden | increased | slightly increased | – | – | – | – | – | – | – | – | – |
| Cc1sc2c(c1C)C(c1ccc(Cl)cc1)=N[C@@H](CC(=O)OC(C)(C)C)c1nnc(C)n1-2 [(+)-JQ1, reference compound] | – | – | – | – | – | – | – | – | ~120 | severe toxicity | 18 | slightly reduced | visible toxicity | 680 | 1110 | – | – |
| O=C(CCCCCCC(=O)Nc1ccccc1)NO [SAHA, suberoylanilide hydroxamic acid, reference compound] | – | – | – | – | – | – | – | obviously increased | – | – | 41 | – | – | 3940 | 3340 | 560 | upregulated |
